Converted amounts (≈) assume the structure as drawn. Where two headings read alike, the source gives them in different places.
Key:
[1] = Kinetic aqueous solubility; type: physicochemical; settings: universal aqueous buffer, pH 7.4
[2] = Chemical stability, degradation to aminotriazine; settings: C-N bond cleavage to aminotriazine JSF-3226, light-dependent
[3] = for T>MIC: single 25 mg/kg po dose
[4] = in vivo; settings: female, mouse; for Vd / clearance / half-life: iv, 5 mg/kg
[5] = Mouse liver microsomal stability; type: in vitro ADME; settings: liver microsomes, pH 7.4
[6] = test system: M. tuberculosis H37Rv; test: MIC, microplate-based Alamar Blue assay; type: cell-based, Mycobacterium tuberculosis
[7] = Mouse plasma stability; type: in vitro ADME; settings: after 5 h incubation
[8] = test system: FAS-II pathway in M. tuberculosis H37Rv; type: cell-based, Mycobacterium tuberculosis
[9] = test system: 100 day-old cultures of M. tuberculosis H37Rv; type: cell-based, Mycobacterium tuberculosis
[10] = ref Inoyama et al., 2018; cited from earlier work
[11] = test system: M. tuberculosis H37Rv; settings: cited from earlier work
[12] = test system: M. tuberculosis fgd1∷tn; test: Griess assay for NO• quantification, fgd1∷tn; type: cell-based, Mycobacterium tuberculosis; settings: 20 μM compound, lower limit of quantification 0.80 μM NO2−
[13] = test system: M. tuberculosis; test: Minimum bactericidal concentration; type: cell-based, Mycobacterium tuberculosis
[14] = test system: M. tuberculosis H37Rv; test: Griess assay for NO• quantification, H37Rv; type: cell-based, Mycobacterium tuberculosis; settings: 20 μM compound, 5 d exposure, lower limit of quantification 0.80 μM NO2−
[15] = target: purified InhA (Mycobacterium tuberculosis, UniProt P9WGR1); test: biochemical; design: species or system M. tuberculosis
purified InhA, sequence (P9WGR1 whole entry, looked up): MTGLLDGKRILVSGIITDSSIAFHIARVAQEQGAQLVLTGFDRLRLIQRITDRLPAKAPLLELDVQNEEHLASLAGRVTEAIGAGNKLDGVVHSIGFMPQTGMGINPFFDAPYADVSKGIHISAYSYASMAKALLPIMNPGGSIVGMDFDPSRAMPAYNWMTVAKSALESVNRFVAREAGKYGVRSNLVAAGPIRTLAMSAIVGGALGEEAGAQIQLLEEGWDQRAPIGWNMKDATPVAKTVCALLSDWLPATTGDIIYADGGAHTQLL

[16] = test system: M. tuberculosis strain fgd1∷tn; test: MIC versus F420H2 deficient strain fgd1∷tn; type: cell-based, Mycobacterium tuberculosis
[17] = test system: E. faecium; test: MIC versus ESKAPE bacteria: E. faecium; type: cell-based; settings: Enterococcus faecium
[18] = Vero cell-based cytotoxicity; settings: African green monkey, Vero cells
[19] = Dose proportionality and tolerability in mice; settings: single dose 300 mg/kg
[20] = test system: M. tuberculosis H37Rv; type: in vivo; settings: 60 and 200 mg/kg oral daily, after 4 weeks of dosing, Balb/c mice
[21] = test system: human cytochrome P450 isoforms; type: in vitro ADME
[22] = test system: P aeruginosa; test: MIC versus ESKAPE bacteria: P aeruginosa; type: cell-based
[23] = test system: E. cloacae; test: MIC versus ESKAPE bacteria: E. cloacae; type: cell-based; settings: Enterobacter cloacae
[24] = Human liver microsomal stability; type: in vitro ADME; settings: liver microsomes, pH 7.4
[25] = Mycobacterium tuberculosis, H37RV

Compound	solubility at 4 h [1]	T>MIC ([3]; mouse)	Kp at 5 h ([4]; 25 mg/kg)	Vd [4]	clearance [4]	half-life [4]	AUC(0-t) ([4]; po, 25 mg/kg)	Cmax ([4]; po, 25 mg/kg)	bioavailability ([4]; po, 25 mg/kg)	half-life [5]	MIC [6, 25]	FAMEs and MAMEs profile by TLC [8]	reduction in colony-forming units (CFUs) [9]	also measured
CC1(Nc2nc(N/N=C/c3ccc([N+](=O)[O-])o3)nc(N3CCOCC3)n2)CC1 [JSF-2625, (E)-N-(1-methylcyclopropyl)-4-morpholino-6-(2-((5-nitrofuran-2-yl)methylene)hydrazineyl)-1,3,5-triazin-2-amine]	8.71 µM (≈ 3.38 µg/mL)	1 to 3 h	0.3	1.44 L/kg	88 mL/min/kg	11.4 min	538 ng·h/mL	266 ng/mL	11.4%	56.4 min	0.25 µM (≈ 0.0971 µg/mL)			stability in mouse plasma, aqueous DMSO, or aqueous CH3CN [2]: found to degrade
O=[N+]([O-])c1ccc(/C=N/Nc2nc(N3CCC3)nc(N3CCOCC3)n2)o1 [JSF-2619, (E)-4-(4-(azetidin-1-yl)-6-(2-((5-nitrofuran-2-yl)methylene)hydrazineyl)-1,3,5-triazin-2-yl)morpholine]		3 to 5 h	0.23	1.91 L/kg	61.7 mL/min/kg	21.6 min	7640 ng·h/mL	4200 ng/mL	49.2%					stability in mouse plasma, compound remaining [7]: satisfactory stabilities in mouse plasma
O=[N+]([O-])c1cn2c(n1)OC[C@@H](OCc1ccc(OC(F)(F)F)cc1)C2 [Pretomanid, reference compound]											0.039 µM (≈ 0.014 µg/mL)	decrease of MAMEs	6 log10	MIC ([6]; H37Rv): 0.078 µM (≈ 0.028 µg/mL)
O=[N+]([O-])c1ccc(/C=N/Nc2nc(Nc3ccccc3)nc(Nc3ccccc3)n2)o1 [JSF-2019, (E)-6-(2-((5-nitrofuran-2-yl)methylene)hydrazinyl)-N2,N4-diphenyl-1,3,5-triazine-2,4-diamine]		5.0 h	2.6				1150 ng·h/mL	317 ng/mL		63.6 min	0.078 µM (≈ 0.0325 µg/mL)		~4 log10	aqueous solubility S [10]: < 0.060 µM; MIC (minimum concentration to inhibit 90% of bacterial growth) ([11]; ref Ekins et al., 2013): 0.15 µM; NO• release quantified as nitrite [12]: not discernible; MBC (lowest concentration to reduce the bacterial population by 2 log10) [13]: 600 – 1200 nM; FAMEs and MAMEs profile by TLC ([8]; […], INH and pretomanid at 10x MIC, JSF-2019 and JSF-2513 1 – 40x MIC): accumulation of FAMEs and decrease of MAMEs; NO• release quantified as nitrite [14]: smaller yet quantifiable NO• release compared to pretomanid; AUC ([4]; po, 25 mg/kg): 1150 ng·h/mL; IC50 ([15]; InhA IC50, in the presence of 1% CMC Tween-20): 24 ± 3.6 µM; IC50 ([15]; InhA IC50, without added detergent, substrate 2-dodecenoyl-CoA, NADH): 20 ± 2.4 µM; MIC shift / loss of susceptibility, fgd1∷tn versus H37Rv [16]: 17 fold
FC(F)(F)Oc1ccc(CO[C@@H]2COc3nccn3C2)cc1 [des-nitro pretomanid, reference compound]														whole-cell efficacy ([11]; ref Singh et al., 2008): lack quantifiable whole-cell efficacy
NNC(=O)c1ccncc1 [INH, reference compound]											0.16 µM (≈ 0.0219 µg/mL)	reduction of mycolic acids		
O=[N+]([O-])c1ccc(/C=N/Nc2nc(N3CCOCC3)nc(N3CCOCC3)n2)o1 [JSF-2189, (E)-4,4'-(6-(2-((5-nitrofuran-2-yl)methylene)hydrazineyl)-1,3,5-triazine-2,4-diyl)dimorpholine]	20.2 µM (≈ 8.17 µg/mL)									68 min	7.8 µM (≈ 3.15 µg/mL)			
O=[N+]([O-])c1ccc(/C=N/Nc2nc(Nc3ccccc3)nc(N3CCOCC3)n2)o1 [JSF-2513, (E)-4-morpholino-6-(2-((5-nitrofuran-2-yl)methylene)hydrazineyl)-N-phenyl-1,3,5-triazin-2-amine]	0.853 µM (≈ 0.35 µg/mL)	8 to 24 h		1.38 L/kg	37.2 mL/min/kg	25.8 min	12000 ng·h/mL	1710 ng/mL	≥ 99%		0.63 µM (≈ 0.259 µg/mL)	depletion of MAMEs and accumulation of precursor FAMEs	ca. 7 log10	stability in mouse plasma, compound remaining [7]: satisfactory stabilities in mouse plasma; MIC [17]: 15 µM (≈ 6.16 µg/mL); CC50 [18]: 3.9 µM; tolerability in mice [19]: lethargy; NO• release quantified as nitrite [12]: abolished; level in the mouse lungs ([3]; 5 h post a single 25 mg/kg dose, limit of quantification 25 ng/mL): near the limit of quantification; Clung/Cplasma at 5 h ([3]; mouse): BLQ; M. tuberculosis CFUs in mouse lungs and spleen versus vehicle [20]: failed to demonstrate a reduction in M. tuberculosis CFUs; inhibition of human cytochrome P450 isoforms [21]: did not significantly inhibit; NO• release quantified as nitrite [14]: in a lesser amount than JSF-2019; MIC [22]: > 120 µM; MIC [23]: > 120 µM; IC50 ([15]; InhA IC50): > 150 µM; half-life [24]: 61.7 min; microsomal CLint [24]: 11.2 µL/min/mg

— PMC7035970 (Cell chemical biology, 2019)
